Assays:
[1] = test system: Meth-A fibrosarcoma cells (Meth-A tumor cells); assay: Antitumor activity, subcutaneous administration, Meth-A tumor-bearing mice (Examples 1 and 4); format: in vivo, female BALB/c mice; conditions: Table 4, day 21
Protocol: (§1) Meth-A fibrosarcoma cells (Meth-A tumor cells) (1×10^6 cells) were transplanted into each female BALB/c mice (weighing about 20 g) subcutaneously in the flank using a syringe. Seven days after tumor transplantation, mice in which tumor was larger than a certain defined size were chosen and grouped and administration of the test agent was started. The agent was administered subcutaneously in the opposite flank relative to the tumor transplantation site once daily for 10 consecutive days. Each ingredient of the test agent was dissolved in physiological saline (solvent) supplemented in a form of a single preparation with 5% of normal mouse serum in a concentration such that the dose of the solution amounted to 0.1 ml/20 g of mouse body weight. The antitumor effect was evaluated by measuring the tumor weight in each mouse 21 days after tumor transplantation, determining the average tumor weight for each group and calculating the tumor weight ratio (T/C %) between the dosed group (T; 5 animals per group) and the untreated control group (C; 5 to 10 animals per group). The daily dose of each ingredients was expressed in terms of the ingredient weight (mcg) per mouse.

[2] = Body weight gain of tumor-bearing mice, subcutaneous administration (Examples 1 and 4); format: in vivo, female BALB/c mice; conditions: Table 4; TMD-5 200 mcg/mouse/day alone s.c.
Protocol: as §1

[3] = TMD-76 200 mcg/mouse/day alone s.c. x10 days
[4] = TMD-5 200 mcg/mouse/day alone s.c. x10 days

SMILES: COC(=O)CC[C@@H](NC(=O)[C@@H](NC(=O)[C@@H](C)O[C@H]1[C@H](O)[C@@H](COC(=O)CCC2=C(C)C(=O)C(OC)=C(OC)C2=O)OC(O)[C@@H]1NC(C)=O)C(C)C)C(N)=O (stereo partly drawn) [TMD-76, 6-0-[3-(2,3-dimethoxy-5-methyl-1,4-benzoquinon-6-yl)propionyl]-N-acetylmuramyl-L-valyl-D-isoglutamine methyl ester]
- Tumor weight (mg) Mean ± SD [1, 3]: 5,550 ± 1,776 mg
- Tumor weight ratio (T/C %) [1, 3]: 97%

SMILES: CC(=O)N[C@H]1C(O)O[C@H](CO)[C@@H](O)[C@@H]1O[C@H](C)C(=O)NC(C)(C)C(=O)N[C@H](CCC(=O)O)C(N)=O (stereo partly drawn) [TMD-5, N-acetylmuramylaminoisobutyryl-D-isoglutamine]
- Tumor weight (mg) Mean ± SD [1, 4]: 5,662 ± 1,097 mg
- Tumor weight ratio (T/C %) [1, 4]: 99%
- Body weight gain (g) (day 7 to day 21) [2]: 3.0 g

— patent publication US4780313A (Takeda Chemical Industries, Ltd., priority 1985, dated 1988)
